Data on seven compounds can be found in patent US8481561B2, “Classes of GABAA/BZR ligands” (Innovationspatent Sverige AB, priority 2008, dated 2013).

The target of data set [1] is benzodiazepine receptor. Briefly: Displacement of 3H-flumazenil binding in rat cortical tissue (receptor binding). Conditions: 3H-Flumazenil binding in vitro, rat cortical membranes; mean of three determinations. How it is done: Affinity of test substances for the benzodiazepine receptor was determined in vitro by displacement of ^3H-flumazenil in rat cortical tissue.

`Cc1ccc(-c2nsc3[nH]c4ccc(C)cc4c(=O)c23)cc1` [Compound 19, 6-Methyl-3-(4-methylphenyl)isothiazolo[5,4-b]quinolin-4(9H)-one] had a melting point of 330 °C. The Ki in data set [1] amounted to 1.9 nM.
In turn, `Cc1ccc2[nH]c3snc(-c4ccc(Br)cc4)c3c(=O)c2c1` [Compound 21, 3-(4-Bromophenyl)-6-methylisothiazolo[5,4-b]quinolin-4(9H)-one] returned a melting point of 357 °C. The Ki in data set [1] was 5.3 nM.
`COc1ccc(-c2nsc3[nH]c4ccc(C)cc4c(=O)c23)cc1` [Compound 22, 3-(4-Methoxyphenyl)-6-methylisothiazolo[5,4-b]quinolin-4(9H)-one]: in data set [1], the Ki was found to be 2 nM.
For the compound `Cc1ccc2[nH]c3snc(-c4ccc([N+](=O)[O-])cc4)c3c(=O)c2c1` [Compound 23, 6-Methyl-3-(4-nitrophenyl)-isothiazolo[5,4-b]quinolin-4(9H)-one], the melting point came out at 343 °C. For the same compound, the Ki in data set [1] is 5.5 nM.
The corresponding values for `Cc1ccc(-c2nsc3[nH]c4ccc(Br)cc4c(=O)c23)cc1` [Compound 24, 6-Bromo-3-(4-methylphenyl)isothiazolo[5,4-b]quinolin-4(9H)-one] are 331 °C and 2.9 nM.
In data set [1], `Cc1ccc2[nH]c3onc(-c4ccccc4)c3c(=O)c2c1` [Compound 26, 6-Methyl-3-phenyl-isoxazolo[5,4-b]quinolin-4(9H)-one] had a Ki of 18 nM.
As to `CCCC(=O)Nc1nsc2[nH]c3ccc(C)cc3c(=O)c12` [Compound 31, N-(6-methyl-4-oxo-4,9-dihydroisothiazolo[5,4-b]quinolin-3-yl)butanamide], the Ki in data set [1] worked out at 2 nM.
